Assay type in all cases: in vivo, Kunming mice
Experiment [1] concerns mice with hyperlipoidemia. In words: Liver TC and TG contents and liver weight coefficient in mice with hyperlipoidemia. Conditions: positive drug 40 mg/kg. From the text: A hyperlipoidemia model was established with reference to the methods as described in the references (Liyan Sun, Zhenliang Liu, Jinxia Sun, et al., Effect of Imperata cylindrica polysaccharide on hypoxia tolerance in mice, China Journal of Hospital Pharmacy, 2008, 28(2): 96-99; Bin Leng, Intervention of immunoregulation and renal fibrosis by Imperata cylindrica polysaccharide in rats with IgA nephropathy, Dissertations of Guilin Medical University, 2013; Shijing Lv, Qicai Long, Deyuan He, et al., Regulation of lymphocyte proliferation and T cell subpopulation by Imperata cylindrica polysaccharide in patients with hepatitis B, [Conference Paper] 2001—The Second National Academic Conference on Immunology of Traditional Chinese Medicine). Experimental method: The mice were kept at a temperature of 20±2° C. and a humidity of 50±5% under 12 hours of light and 12 hours of darkness for 3 days, during which the mice were allowed to access to food and water ad arbitrium. […] The serum TC, TG, LDL-C and HDL-C levels were measured. A part of the liver tissue of the mice was took, homogenized, and measured for liver TC and TG contents, as well as SOD and GSH-px activities and MDA content. […]

Experiment [2] relates to mice with diabetes mellitus induced by streptozotocin (STZ). In words: Glucose tolerance (i.p. glucose load) in mice with STZ-induced diabetes mellitus. To be noted: 25 mg/kg, x ± S.D, n = 10. Here is the method: Experimental method: The mice were kept at a temperature of 20±2° C. and a humidity of 50±5% under 12 hours of light and 12 hours of darkness for 3 days, during which the mice were allowed to access to food and water ad arbitrium. 10 healthy mice were selected as the normal control group (Control). The remaining mice were intraperitoneally injected with a streptozotocin (STZ) solution at 0.2 ml/10 g body weight. 72 h later, the fast blood glucose (FBG) of the mice was measured. The mice having an FBG value higher than 11.1 mmol/L and lower than 25 mmol/L were selected as diabetes mellitus model mice. The diabetes mellitus model mice were randomly grouped into a model group (STZ 120 mg/kg), a low-dose Saposhnikovia divaricata polysaccharide group (SDP 50 mg/kg), a high-dose Saposhnikovia divaricata polysaccharide (SDP 200 mg/kg) group, and a positive drug (Glibenclamide, GLI 25 mg/kg) control group, 10 mice per group. For each dosing group, the mice were dosed by oral gavage at 0.2 ml/10 g body weight at 8:00 am every day. The normal control group and the model group were given an equal volume of distilled water. During the experiment, the mice in each group were allowed to access to water ad arbitrium. The FBG and body weight were measured every 10 days. 30 days after the dosing, the mice were treated, and the following indexes were measured.
(1) Glucose tolerance: The mice were fasted at 8:00 the day before the end of the experiment. After 4 h, blood was collected from the orbit, and FBG was measured as the blood glucose level before administration of glucose (0 h). Then, all mice were intraperitoneally injected with a 10% glucose solution at 0.2 ml/10 g body weight. 0.5 hour (0.5 h) and 2 hours (2 h) after intraperitoneal injection of glucose, blood was collected from the orbit, and the blood glucose value was measured. The area under the blood glucose curve (AUC) was calculated according to the following equation: […]

Experiment [3] shares this test system. In words: Fast blood glucose (FBG) in mice with STZ-induced diabetes mellitus. To be noted: 25 mg/kg oral gavage daily, STZ diabetic mice, x ± S.D, n = 10. Here is the method: Experimental animals: healthy male Kunming mice of clean grade (weighed 18-22 g, provided by Shanghai SLAC Laboratory Animal Co., Ltd.). Experimental method: […] The diabetes mellitus model mice were randomly grouped into a model group (STZ 120 mg/kg), a low-dose Saposhnikovia divaricata polysaccharide group (SDP 50 mg/kg), a high-dose Saposhnikovia divaricata polysaccharide (SDP 200 mg/kg) group, and a positive drug (Glibenclamide, GLI 25 mg/kg) control group, 10 mice per group. For each dosing group, the mice were dosed by oral gavage at 0.2 ml/10 g body weight at 8:00 am every day. The normal control group and the model group were given an equal volume of distilled water. During the experiment, the mice in each group were allowed to access to water ad arbitrium. The FBG and body weight were measured every 10 days. 30 days after the dosing, the mice were treated, and the following indexes were measured.

As for `CC(C)OC(=O)C(C)(C)Oc1ccc(C(=O)c2ccc(Cl)cc2)cc1` [Lipanthyl, Fenofibrate], in experiment [1], the liver weight coefficient result is “significantly increased”. Further, the “liver TC content” value in experiment [1] (vs high-fat model group, P<0.01) is recorded as “significantly lower”.

As to `COc1ccc(Cl)cc1C(=O)NCCc1ccc(S(=O)(=O)NC(=O)NC2CCCCC2)cc1` [GLI, glibenclamide], the Blood glucose in experiment [2] (0 h (before glucose), after 30 days dosing) amounted to 20.44 ± 2.25 mmol/1; in experiment [2] (0.5 h after i.p. glucose), 29.63 ± 2.24 mmol/1; in experiment [2] (2 h after i.p. glucose) it was 27.60 ± 2.04 mmol/1. In addition, in experiment [2] (blood glucose curve 0-2 h), the “Area under the curve (AUC)” value is 40.62 ± 2.86. Besides, the FBG amounted to 12.58 ± 2.69 mmol/L in experiment [3] (Day 0), 15.95 ± 1.57 mmol/L in experiment [3] (Day 10), 18.56 ± 3.02 mmol/L in experiment [3] (Day 20) and 20.44 ± 2.25 mmol/L in experiment [3] (Day 30).

Source of the values: patent US20210032374A1, “ISOLATED SAPOSHNIKOVIA DIVARICATA POLYSACCHARIDE AND USE THEREOF” (SHANGHAI GREEN VALLEY PHARMACEUTICAL CO., LTD., priority 2018, published 2021).
